Biological target: T1, hGLUT5 (Homo sapiens, UniProt P22732)
T1 construct: expressed in transfected cells; host or cells: HEK293 (HEK293-FLIP); native hGLUT1 not knocked down in this line
T1 sequence (P22732 1-501): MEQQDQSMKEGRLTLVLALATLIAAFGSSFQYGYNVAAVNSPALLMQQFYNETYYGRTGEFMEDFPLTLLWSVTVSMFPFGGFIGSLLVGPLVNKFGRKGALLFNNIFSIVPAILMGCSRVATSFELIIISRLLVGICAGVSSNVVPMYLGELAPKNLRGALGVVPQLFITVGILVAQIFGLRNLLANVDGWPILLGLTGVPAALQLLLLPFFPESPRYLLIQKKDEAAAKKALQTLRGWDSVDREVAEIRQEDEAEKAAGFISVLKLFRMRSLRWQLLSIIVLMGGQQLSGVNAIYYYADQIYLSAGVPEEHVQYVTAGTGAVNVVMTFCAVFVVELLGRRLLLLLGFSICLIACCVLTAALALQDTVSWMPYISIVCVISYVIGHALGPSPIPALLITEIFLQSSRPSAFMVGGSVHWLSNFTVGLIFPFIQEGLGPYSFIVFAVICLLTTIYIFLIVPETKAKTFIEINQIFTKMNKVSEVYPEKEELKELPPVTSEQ
Assay: [3H]-D-fructose uptake by HEK293 cells overexpressing GLUT5
Assay type: cell-based
From the text: Generation of HEK293 cells overexpressing PfHT and human GLUTs 1–4 were described elsewhere. Briefly, HEK293 cells were transfected with pcDNA3.1 FLII12Pglu-7006 (Addgene), containing the fluorescence resonance energy transfer (FRET) glucose sensor (HEK293-FLIP) and PfHT, human GLUT1 (hGLUT1), hGLUT2, hGLUT3, hGLUT4, hGLUT5 or hGLUT8 using Optifect (Life Technologies) according to manufacturer’s specifications. To increase retention of GLUT8 at the plasma membrane, the dileucine sorting signal E^7E^8XXXLL was modified to R^7R^8XXXLL as described in [17]. Stable transfectants were selected for G418 and hygromycin resistance to select for FRET sensor and hexose transporter, respectively. HEK293-FLIP cells were also used to generate cells stably transfected with FLAG-tagged PfHT (FTPfHT). FLAG tag ([…]) followed by a triple glycine linker and a tobacco etch virus (TEV) protease site (ENLYFQS) followed by a triple glycine linker was added to the N-terminus of PfHT via PCR [18] using Phusion Hot Start II High-Fidelity DNA Polymerase (Fisher Scientific). Single clones were selected by comparing their abilities to transport glucose as assayed via FRET and radiolabeled hexose uptake. In all cell lines, except for HEK293 cells overexpressing hGLUT1 and hGLUT5, native hGLUT1 was knocked down using shRNA as described elsewhere. Transcript levels of the individual GLUTs expressed in each cell line are as described in [13, 15] and in S1 Fig.
Glucose uptake by P. falciparum was performed essentially as described. P. falciparum strain 3D7 was cultured in 100 mm tissue culture dishes (Techno Plastic Products) in a 2% suspension of human erythrocytes and RPMI 1640 medium until reaching > 7.5% parasitemia. Cells were pelleted via centrifugation and resuspended in RPMI 1640 medium. To determine the uptake of radiolabeled glucose into the parasite, parasites were isolated from infected erythrocytes by permeablization with saponin (0.05 w/v), followed by centrifugation, aspiration of supernatant and washing of the pellet 3X with saline solution (135 mM NaCl, 2 mM KCl, 25 mM HEPES, 0.2 mM glucose and 1 mM MgCl2; pH 7.1) to remove cellular debris. WU-1 or DMSO vehicle were added to 100 μl parasites (resuspended in saline) 5 min prior to the addition of 100 μl [^14C]2-DOG (0.2- μCi/ml final concentration). 2-DG uptake was stopped after 2 min by layering the entire reaction over 300 μl of an oil mixture (5:4 mix of dibutyl phthalate / dinonyl phthalate) in Eppendorf tubes and centrifuged at 15,850 × g for 2 mins. The ratio of the estimated intracellular concentration of radiolabel relative to the extracellular concentration were calculated as described. Uptake of radiolabeled hexose into HEK293 cells was measured in glucose-free HBSS as described previously. Briefly, cells were plated at 400,000 cells/well overnight at 37°C in 24-well plates pre-treated with PEI. After 30-min incubation at 37°C in glucose-free HBSS in the presence of vehicle or increasing concentrations of compound, 2-DG uptake was measured in glucose-free HBSS for 4 min at 37°C. Cultures were washed in ice-cold 1X PBS and lysed in 0.1% Triton X-100 in 1X PBS. Radiolabeled hexose uptake was determined by liquid scintillation counting (Ultima Gold, Thermo Fisher) and normalized to total protein per well. Uptake data are plotted as percent uptake relative to vehicle-treated cells. Kinetic analyses were performed using the indicated concentrations of substrate and WU-1, with quenching of uptake after 1 min incubation. Incubation times had been previously determined as being in the linear range of time-dependent radiolabeled hexose uptake (2 min for 2-DG uptake into freed parasites; 2 and 4 min for D-Frc and 2-DG uptake HEK cell lines, respectively). Data were fit by least squares nonlinear regression analysis using GraphPad Prism 6.0 software.

Cc1ccc(S(=O)(=O)CCNC(=O)c2c(-c3c(Cl)cccc3Cl)noc2C)cc1 [WU-1, 3-(2,6-dichlorophenyl)-5-methyl-N-[2-(4-methylbenzenesulfonyl)ethyl]-1,2-oxazole-4-carboxamide]
IC50 (µM) (GLUT5, D-frc Uptake): ambiguous
IC50, D-fructose (Frc) uptake (GLUT5 cell line): n.i.
remaining activity at 0.001 µM (HEK293, 2 min, GLUT5, concentration 0.001 µM, read-out: D-frc Uptake AVE): 100%
remaining activity at 0.3125 µM (HEK293, 2 min, GLUT5, concentration 0.3125 µM, read-out: D-frc Uptake AVE): 78.1%
remaining activity at 0.625 µM (HEK293, 2 min, GLUT5, concentration 0.6250 µM, read-out: D-frc Uptake AVE): 82.9%
remaining activity at 1.25 µM (HEK293, 2 min, GLUT5, concentration 1.2500 µM, read-out: D-frc Uptake AVE): 96.7%
remaining activity at 2.5 µM (HEK293, 2 min, GLUT5, concentration 2.5000 µM, read-out: D-frc Uptake AVE): 102%
remaining activity at 5 µM (HEK293, 2 min, GLUT5, concentration 5 µM, read-out: D-frc Uptake AVE): 89.8%
remaining activity at 10 µM (HEK293, 2 min, GLUT5, concentration 10 µM, read-out: D-frc Uptake AVE): 87.6%
remaining activity at 20 µM (HEK293, 2 min, GLUT5, concentration 20 µM, read-out: D-frc Uptake AVE): 103%
remaining activity at 40 µM (HEK293, 2 min, GLUT5, concentration 40 µM, read-out: D-frc Uptake AVE): 108%
remaining activity at 80 µM (HEK293, 2 min, GLUT5, concentration 80 µM, read-out: D-frc Uptake AVE): 110%
remaining activity at 160 µM (HEK293, 2 min, GLUT5, concentration 160 µM, read-out: D-frc Uptake AVE): 111%
remaining activity at 225 µM (HEK293, 2 min, GLUT5, concentration 225 µM, read-out: D-frc Uptake AVE): 125%
Selectivity Index (PfHT over GLUT5), Frc (calculated from IC50s): n.i.

From PMC6508677, “Identification of druggable small molecule antagonists of the Plasmodium falciparum hexose transporter PfHT and assessment of ligand access to the glucose permeation pathway via FLAG-mediated protein engineering” (PLoS ONE, 2019)
